Reference: publication PMC4109680, “Identification and Preclinical Pharmacology of the γ-Secretase Modulator BMS-869780” (International Journal of Alzheimer's Disease, 2014)

What was measured:
rat brain Aβ = experiment: Rat brain Aβ peptides after oral dose (4-plex immunoassay and Aβ1-x); format: in vivo; settings: 24 hours
Description: IC50 determinations for Aβ1-42 and Aβ1-40 in H4-APPsw cultures in 384-well format were determined using homogeneous time-resolved fluorescence immunoassays as previously described. The principle of these assays is illustrated in Figures 1(c) and 1(d). In other experiments using H4-APPsw cultures, Aβ was quantified by ELISA; for Aβ1-42 the combination of monoclonal antibodies was 26D6 and 565-HRP; for Aβ1-40 it was TSD and 26D6-HRP, and for Aβ1-x it was 4G8 and 26D6-HRP. In some experiments a novel 4-plex Aβ electrochemiluminescence immunoassay was used (Mesoscale Discovery catalog number N45ZA-1). Briefly, the 4-plex was carried out in 96-well format, with 4 separate spots of capture antibodies in each well. The 96-well plates were prepared by the manufacturer, with spots of monoclonal antibodies for Aβ1-42, Aβ1-40, and Aβ1-38, and an additional fourth spot of streptavidin in each well. Plates were initially incubated with blocking buffer (5% BSA in phosphate buffered saline, 200 μL per well) for 2 hours at ambient temperature and then with D2A6H-biotin conjugate (50 ng/mL in 1% BSA, phosphate buffered saline, 25 μL per well) for 1 hour. Plates were then rinsed with phosphate buffered saline before addition of experimental samples for determination of Aβ1-42, Aβ1-40, Aβ1-38, and Aβ1-37 levels, following the manufacturer's instructions as for the Aβ 3-plex kit (catalog number K15148E-1). Rat brain extracts for use in the 4-plex assay were made in 0.2% diethylamine, as previously described. For detection of rat Aβ peptides in the 4-plex (Figure 5), 252Q6-sulfo-tag conjugate was used, and for detection of human Aβ peptides from cell cultures 6E10-sulfo-tag conjugate was used. For Aβ in transiently transfected PS1/PS2 dKO fibroblasts, Aβ1-42 was quantified using an ELISA kit (WACO), and Aβ1-40 was quantified by ELISA as described above for H4-APPsw cultures. For triple transgenic mice (3xTg; [63]), human transgenic Aβ1-42 was assayed in brain homogenates using an ELISA kit (WACO). For the rat and mouse experiments illustrated in Figures 7 and 8, brain samples were prepared by solid phase extraction, and endogenous rat brain Aβ1-42 and Aβ1-40 were quantified by ELISA as previously described for wild type mice. For brain extracts made using solid phase extraction, calibration of Aβ was relative, based on the approximately linear response of the assay in the range tested. For brain extracts made in 0.2% diethylamine, Aβ1-42, Aβ1-40, Aβ1-38, and Aβ1-37 concentrations in brain and cell culture samples were determined by fitting the results of immunoassays against calibration curves derived from a range of dilutions of the corresponding synthetic peptides on each assay plate using a quadratic curve fit (Graphpad Prizm 5.0). Aβ1-x was calibrated in the same way against synthetic Aβ1-40 peptide. Results were expressed in units of pM, corrected for sample dilution.
Rats were given oral doses of BMS-869780, and levels of brain Aβ, βCTF, and αCTF were determined 24 hours later. For comparison, BMS-698861 was dosed in a separate experiment and samples were taken 5 hours later. […] (c) Rat brain βCTF was detected by western blotting of immunoprecipitates from samples of the same rat brains used for Aβ determinations. […] (e) and (f) quantification of western blots shown in (c) and (d), respectively, expressed relative to percent of average level of CTF in vehicle-treated rats. […]

[1] = Plasma protein bound fraction, rat; format: in vitro ADME

COc1cc(Nc2nc3n(n2)CCCC[C@H]3c2ccc(F)cc2)ccc1-n1cnc(Cl)c1 [BMS-869780]
rat brain Aβ1-37 and Aβ1-38 (rat brain Aβ; oral doses 1.9-235 mg/kg): increased | rat brain Aβ1-40 and Aβ1-42 (rat brain Aβ; oral doses 1.9-235 mg/kg): decreased | rat brain Aβ1-x (rat brain Aβ; oral doses): no significant decrease | sum total of brain Aβ1-40, Aβ1-42, Aβ1-38 and Aβ1-37 (rat brain Aβ; oral doses): no significant change in overall Aβ levels | protein bound fraction [1]: 99.5%
